Experimental data as given in US10058611B2, “Use of α-(8-quinolinyloxy) mono-substituted phthalocyanine zinc for treatment of psoriasis” (BEIJING GUIQIANJIN MEDICAL SCIENCE AND TECHNOLOGY CO., LTD., priority 2014, dated 2018).

How the values were obtained:
HaCaT cells = assay: Proliferation inhibition of HaCaT cells after 670 nm irradiation (MTT); format: cell-based, human
Procedure: HaCaT cell line, a cell line of normally mutated and immortalized human keratinocyte, is one of the most wildly used cell models for the currently study of psoriasis. As compared with primary cultured keratinocytes, HaCaT cells have similar biological properties, but its operation is simpler.
HaCaT cells were routinely cultured in RPMI-1640 medium containing 10% fetal bovine serum at 37° C. in a 5% CO2 incubator. The cells were harvested in logarithmic growth phase, digested with 0.25% trypsin (containing EDTA), adjusted to a cell density of 2×10^5 cells/mL and seeded in a 96-well plate, 100 μL per each well; after incubation for 24 hours, α-(8-quinolinyloxy) mono-substituted phthalocyanine zinc was added at concentrations of 0.001 μg/mL, 0.01 μg/mL, 0.1 μg/mL, 1 μg/mL and 10 μg/mL respectively and three complex wells were set for each concentration. […] The culture medium was discarded; 200 μL of MTT solution (0.5 mg/mL) was added to each well; the cells were incubated for additional 4 hours; then, 200 μL of dimethyl sulfoxide was added to each well and the absorbance value of each well was measured by a microplate reader at 545 nm (reference wavelength: 450 nm). 3 times of parallel measurements were conducted and the mean value was calculated. The inhibition rate of proliferation was calculated and IC50 was calculated by Bliss method.

[1] = tested on: mouse vaginal epithelial cells; assay: Diethylstilbestrol-induced excessive proliferation of mouse vaginal epithelial cells (PDT, mitotic index); format: in vivo, ICR mice; conditions: for Mitotic Index: x ± s, n = 10
Source text: Estrogen (for example diethylstilbestrol) may induce the active proliferation of mouse vaginal epithelial cells, thereby accelerating the turnover of epithelial cells; and colchicine may make the cell cycle stagnated in the mitotic metaphase and then the inhibition effects of a test substance on mitosis and excessive cell proliferation may be observed. This model may simulate the characteristic of overly rapid proliferation of epithelial cells in psoriasis patients, is simple and easy to obtain, and is one of the most common animal models in the assessment of drug efficacy for psoriasis.
Sixty ICR mice were taken and randomly divided into 6 groups according to weights: blank control group, model control group, irradiation without administration group and PDT groups 1, 2 and 3. Except for the blank control group, all of other groups were intraperitoneally injected with diethylstilbestrol (0.2 mg/mouse), once-daily for 3 days. […] After protection from light for 6 hours, the PDT groups 1, 2 and 3 and the irradiation without administration group were subjected to laser irradiation by using a semiconductor photodynamic therapeutic instrument; the irradiation conditions were 100 mW×540 s, 300 mW×60 s, 100 mW×60 s and 300 mW×540 s, respectively; the spot diameter was 3 cm; and the abdomen of mice was irradiated. The blank control group and the model control group were not subjected to irradiation. After one week post-irradiation, mice of each group were intraperitoneally injected with colchicine at a dose of 2 mg/kg, making the cell mitosis stagnated in the mitotic metaphase. After 4 hours post-injection of colchicine, animals were sacrificed by anesthesia. Mouse vagina was taken, fixed in 10% formaldehyde solution, conventionally dehydrated, embedded in paraffin, sliced and stained with HE; 300 basal cells were counted under a microscope and the number of mitotic cells was calculated and the mitotic index was calculated (number of mitotic cells per 100 basal cells).

[2] = tested on: propranolol-induced psoriasis-like lesions; assay: Propranolol-induced psoriasis-like lesions on guinea pig ears (PDT, histology); format: in vivo
Source text: Propranolol is a β-adrenergic receptor blocking agent, and it may be applied to guinea pig skin to block the β-adrenergic receptor in keratinocytes and thereby reducing the intracellular cAMP level, leading to histopathological changes similar to psoriasis such as hyperkeratosis, parakeratosis and acanthosis of animal epidermis, which are the same as human psoriatic lesions at the molecular level. Application of propranolol to ear skin of guinea pig to replicate a psoriasis-like skin model is often used for observing the therapeutic effect of a drug on psoriasis.
Preparation method for 5% propranolol liniment: dissolving 5 g powder of propranolol API in 50 mL of 50% ethanol, adding 5 g of polyoxyethylene pyrrolidone 30, 2.5 mL of azone, 2.5 mL of propylene glycol, and finally adding 50% ethanol to 100 mL. 5% propranolol was prepared fresh for use. Forty-two guinea pigs were randomly divided into a blank control group and a model-establishing group according to weights, 6 guinea pigs in the blank control group and 36 guinea pigs in the model-establishing group. 5% propranolol was applied uniformly on the back of both ears of guinea pigs in the model-establishing group at a dose of 0.1 mL/ear, once in the morning and once in the afternoon, and the administration lasted for continuous 4 weeks. After the model was established, the guinea pigs in the model-establishing group were randomly divided into 6 groups according to weights again, 6 guinea pigs in each group. The 6 groups were model control group, irradiation without administration group, administration without irradiation group, injection administration group and topical administration groups 1 and 2, respectively. The administration without irradiation group and the injection administration group were intravenously injected with α-(8-quinolinyloxy) mono-substituted phthalocyanine zinc solution at a dose of 0.45 mg/kg and the topical administration groups 1 and 2 were respectively applied with 5% and 1% α-(8-quinolinyloxy) mono-substituted phthalocyanine zinc liniments at a dose of 0.1 mL/ear. […] were not administrated. After protection from light for 24 hours, the irradiation without administration group, the injection administration group and the topical administration groups 1 and 2 were subjected to laser irradiation by using a semiconductor photodynamic therapeutic instrument with the following irradiation conditions: output power, 1,000 mW; spot diameter, 6 cm; irradiation time, 399 s; irradiation dose, 14 J/cm^2. After irradiation, animals were protected from light for 48 hours, and then recovered for 3 days. A photodynamic therapy (administration, irradiation, protection from light and recovery) was repeated once according to the abovementioned steps. […]

α-(8-quinolinyloxy) mono-substituted phthalocyanine zinc
Proliferation of HaCaT cells (result in words) (HaCaT cells; 0.001-10 μg/mL, 670 nm irradiation): inhibit the proliferation of HaCaT cells in a concentration-dependent manner
IC50, inhibition of proliferation of HaCaT cells (HaCaT cells; 4 h incubation, 670 nm irradiation 1500 mW, spot 8 cm, 180 s, MTT 48 h after irradiation, Bliss method): 0.197 ± 0.022 µg/mL
Mitotic Index ([1]; PDT group 1: dose 2 mg/kg i.p., irradiation 540 s, 100 mW): 6.4 ± 2.2^##^ %
Mitotic Index ([1]; PDT group 2: dose 1 mg/kg i.p., irradiation 60 s, 300 mW): 7.2 ± 2.6 %
Mitotic Index ([1]; PDT group 3: dose 0.5 mg/kg i.p., irradiation 60 s, 100 mW): 10.3 ± 4.3 %
Mitotic index compared with the model control group (result in words) ([1]; PDT groups 1, 2 and 3): significantly reduced
Psoriasis-like lesions of the guinea pig ear (result in words) ([2]; administration without irradiation group: 0.45 mg/kg i.v., no laser): improved to some extent but not obviously
Psoriasis-like lesions of the guinea pig ear (result in words) ([2]; injection administration group: 0.45 mg/kg i.v., laser 1,000 mW, 399 s, 14 J/cm^2, two photodynamic therapies): improved significantly
Psoriasis-like lesions of the guinea pig ear (result in words) ([2]; topical administration group 1: 5% liniment 0.1 mL/ear, laser 1,000 mW, 399 s, 14 J/cm^2, two photodynamic therapies): improved significantly
Psoriasis-like lesions of the guinea pig ear (result in words) ([2]; topical administration group 2: 1% liniment 0.1 mL/ear, laser 1,000 mW, 399 s, 14 J/cm^2, two photodynamic therapies): improved significantly
